From US20100239556A1, “PROMOTING ECM PRODUCTION BY FIBROBLAST CELLS AND/OR PROMOTING MIGRATION OF FIBROBLAST CELLS IN A BIOLOGICAL SYSTEM” (TGR BioScience Pty Ltd., priority 2006, published 2010)

B1: horse radish peroxidase (protein, UniProt P00433 31-338, looked up)
Peroxidase C1A: QLTPTFYDNSCPNVSNIVRDTIVNELRSDPRIAASILRLHFHDCFVNGCDASILLDNTTSFRTEKDAFGNANSARGFPVIDRMKAAVESACPRTVSCADLLTIAAQQSVTLAGGPSWRVPLGRRDSLQAFLDLANANLPAPFFTLPQLKDSFRNVGLNRSSDLVALSGGHTFGKNQCRFIMDRLYNFSNTGLPDPTLNTTYLQTLRGLCPLNGNLSALVDFDLRTPTIFDNKYYVNLEEQKGLIQSDQELFSSPNATDTIPLVRSFANSTQTFFNAFVEAMDRMGNITPLTGTQGQIRLNCRVVNSNS

What was measured:
[1] = tested on: human foreskin fibroblast cells (HFF cells); assay: Repeated stimulation of collagen I production; assay type: cell-based; conditions: for total collagen I, stimulated twice versus once within a seven day culture period: day 0-2 plus day 2-7 versus day 0-7; for collagen I production after a second stimulation relative to the first stimulation: restimulated after 48 hours, further 5 days
Experimental: Experiments were performed to ensure human fibroblast cells could be stimulated to increase ECM protein production by proteins having peroxidase activity after more than one application of the proteins having peroxidase activity. The capacity to respond repeatedly to the proteins having peroxidase activity provides important utility for the generation of ECM in vitro, particularly given that spent culture media needs to be replaced on a regular basis to maintain the viability of the cells. These experiments were performed using human foreskin fibroblast cells (HFF cells) seeded into 96 well plates at a density of 1.2×10^4 cells/well and cultured for one week in 10% fetal bovine serum/Dulbecco's minimum essential media (10% FBS/DMEM) at 37° C. and 5% CO2 (as described in Example 3). The confluent cells were then starved overnight in serum free DMEM and triplicate wells treated for six hours with MP, ARP and LP as representative proteins having peroxidase activity or the control agents transforming growth factor β2 (TGFβ2; R&D Systems) and 10% FBS (JRH BioSciences). After 48 hours, the conditioned media was collected for measurement of collagen I (as a representative ECM protein) and the cells either restimulated for six hours with fresh solutions containing proteins having peroxidase activity or control agents or the media was replaced with fresh serum free DMEM. The cells were cultured for a further 5 days after which the media was collected a second time for the measurement of collagen I. Media was also collected from replicate wells treated at the start of the experiment and left for 7 days (total culture period) for comparison.

dermis = assay: Fibrogenic response after intradermal injection; assay type: in vivo, Sprague-Dawley rats
Experimental: Groups of up to 4-8 female Sprague-Dawley rats were lightly anaesthetized and the dorsum shaved. At different sites on their dorsum, each rat received a bolus, intradermal injection of 4 doses of a protein with peroxidase activity (LP, […]; HRP, 1.25-25 μg; SBP, 1.25-25 μg; or micro-peroxidase [MP], 5-125 μg), a vehicle control or TGFβ2 as a positive control. Arthromyces ramosus peroxidase (ARP) was also injected at one dose of 25 μg. Proteins with peroxidase activity were injected in a volume of 50 μl which was sufficient to create a small blister in the skin that resolved within a few minutes. Across the group of rats, each dose of proteins with peroxidase activity was injected into each of the different injection sites to control for any site-related, intra-rat variation. The rats were returned to their cage and left alone for 3 days after which they were killed by CO2 asphyxiation and the skin at the injection sites collected for analysis. The skin at the injection sites was excised using a 6 mm biopsy punch with each piece bisected and fixed in 10% buffered formalin. Fixed tissue was processed for histological assessment by graded dehydration and mounting in paraffin blocks. Blocks were sectioned and sections stained with haematoxylin and eosin (H&E) and Masson's trichrome for qualitative analysis by an experienced pathologist. H&E stained sections were scored for the “fibroblast reaction” (1+-4+) to reflect the number of fibroblast cells identified at the injection site, with 4+ representing the greatest response. H&E and Massons trichrome stained sections were used to evaluate the amount of deposited, collagen-rich extracellular matrix (ECM) that was associated with the fibroblast reaction at each injection site. The collagen-rich ECM deposition was scored 1+-3+ with 3+ representing the greatest response. The scores were combined across the group of rats and statistical analysis performed using a Kruskal-Wallis one way analysis of variance on ranks (ANOVA) followed by post-hoc t-test comparing the response of the proteins with peroxidase activity to the control using Dunn's or Dunnett's method, p<0.05 was considered significant.

[2] = tested on: fibroblast cells isolated from an adult subject; assay: Total protein incorporated into the extracellular matrix (silver stained gel); assay type: cell-based, human; conditions: 10% FBS + 50 ug/ml ascorbic acid, 72 hours
Experimental: To ensure the soluble ECM proteins stimulated by the proteins with peroxidase activity are incorporated into the extracellular matrix generated by human fibroblast cells, given that this is a key requirement for the regeneration of collagen-rich tissues like skin and other organs and tissues, total proteins were extracted from the cell matrix. In these experiments, six well culture plates were seeded with fibroblast cells isolated from an adult subject at a density of 1.5×10^5 cells/well and after one week of culture, cells were treated with proteins with peroxidase activity in media containing 10% FBS and with the addition of ascorbic acid (vitamin C) which is a well known cofactor important for the cross linking of collagen molecules to generate polymeric fibres. Wells were supplemented daily to provide a final concentration of 50 ug/ml ascorbic acid in the media. After 72 hours the cell media was removed, the wells washed with warm PBS and the cell matrix extracted.
The total protein content of the cell matrix was solubilised by the addition of 500 ul/well of RIPA buffer (25 mM Tris-HCl pH7.4; 150 mM NaCl; 1% Triton X-100; 0.5% Na deoxycholate; 0.05% SDS). The cell matrix was scraped off the bottom of each well and the plates placed on a shaking platform for 10 minutes. The extracts were transferred to eppendorf tubes, vortexed vigorously and centrifuged at 12,000 rpm, 4° C. for 5 minutes. The DNA pellet was visualised and gently removed and the samples stored at −80° C. until assessment.
Total cell extracts were assessed by polyacrylamide gel electrophoresis. Samples were prepared by adding an appropriate amount of reduced loading buffer to neat cell extracts and boiling for 5 minutes. Samples were then loaded onto a 4-12% BisTris gradient gel (Invitrogen) together with molecular weight markers (Magic Mark XP and SeeBlue prestained markers; Invitrogen) and resolved for […] at 150V in a Novex mini-cell system (Invitrogen) using NuPage MES SDS running buffer. […]

[3] = 50 μg and 125 μg, 3 days, p<0.05
[4] = intradermal, 3 days, over the doses tested

Molecule | total collagen I, stimulated twice versus once within a seven day culture period [1] | collagen I production after a second stimulation relative to the first stimulation [1] | deposition of collagen rich ECM, histology score (1+-3+) (dermis; 25 μg, 72 hours) | fibroblast reaction, histology score (1+-4+) (dermis; 25 μg, 72 hours) | proteinaceous material in the extracellular matrix versus untreated control cells [2] | deposition of collagen-rich ECM versus control (dermis; [3]) | fibroblast reaction versus vehicle control (dermis; [3]) | number of fibroblasts present at the injection site (H&E images) (dermis; LP 125 μg, TGFβ 0.5 μg, 3 days) | deposition of collagen-rich ECM versus control (dermis; [4]) | fibroblast reaction / tissue fibroblast content at the injection site versus control (dermis; [4]) | deposition of collagen-rich ECM versus control (dermis; 5-25 μg, 3 days, p<0.05) | tissue fibroblast content versus control (dermis; 5-25 μg, 3 days, p<0.05) | deposition of collagen-rich ECM versus control (dermis; 25 μg, 3 days, p<0.05) | tissue fibroblast content versus control (dermis; 25 μg, 3 days, p<0.05)
Arthromyces ramosus peroxidase [ARP] | markedly greater total collagen I levels | produced a greater response when stimulated a second time | two | two |  |  |  |  |  |  |  |  |  | 
lactoperoxidase [LP] | markedly greater total collagen I levels | at least equivalent to that obtained with the first stimulation |  |  | produced much more proteinaceous material | significant increase compared to the control | statistically significant response | profound increase in the number of fibroblasts | dose-dependent effect | dose-dependent increase in the fibroblast reaction |  |  |  | 
microperoxidase [MP] | responded in a similar way to cells treated with TGFβ2 | at least equivalent to that obtained with the first stimulation |  |  | produced much more proteinaceous material |  |  |  | stimulated the deposition of collagen-rich ECM in a significant, dose dependent manner | significantly increased the tissue fibroblast content |  |  |  | 
soy bean peroxidase [SBP] |  |  |  |  | produced much more proteinaceous material |  |  |  | markedly increased | markedly increased the tissue fibroblast content | statistically significant response | statistically significant response |  | 
B1 |  |  |  |  |  |  |  |  | markedly increased | markedly increased the tissue fibroblast content |  |  | statistically significant response | statistically significant response
